Patent publication US9896435B2, “N-pyrrolidinyl,N′-pyrazolyl-urea, thiourea, guanidine and cyanoguanidine compounds as TrkA kinase inhibitors” (Array BioPharma Inc., priority 2012, dated 2018)

Columns and labels:
Assay in all cases: KinaseProfiler off-target kinase profiling
Assay type in all cases: biochemical
Conditions in all cases: 10 μM, ATP near Km
mTOR/FKBP12 = mTOR/FKBP12 (Homo sapiens (Human), UniProt P42345)
Procedure, shortened: (§1)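 Percent-of-control values, mean of duplicate runs, from a broad kinase panel tested with 10 μM compound and ATP near each enzyme's Km.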

IR Activated = IR Activated (Homo sapiens (Human), UniProt P06213)
Procedure, shortened: as §1

IKKbeta = IKKbeta (Homo sapiens (Human), UniProt O14920)
Procedure, shortened: as §1

CK1gamma3 = CK1gamma3 (Homo sapiens (Human), UniProt Q9Y6M4)
Procedure, shortened: as §1

GRK6 = GRK6 (Homo sapiens (Human), UniProt P43250)
Procedure, shortened: as §1

GRK7 = GRK7 (Homo sapiens (Human), UniProt Q8WTQ7)
Procedure, shortened: as §1

CK1_y = system: CK1_y
Procedure, shortened: as §1

MSSK1 = MSSK1 (Homo sapiens (Human), UniProt Q9UPE1)
Procedure, shortened: as §1

Fgr = Fgr (Homo sapiens (Human), UniProt P09769)
Fgr, sequence (P09769 whole entry): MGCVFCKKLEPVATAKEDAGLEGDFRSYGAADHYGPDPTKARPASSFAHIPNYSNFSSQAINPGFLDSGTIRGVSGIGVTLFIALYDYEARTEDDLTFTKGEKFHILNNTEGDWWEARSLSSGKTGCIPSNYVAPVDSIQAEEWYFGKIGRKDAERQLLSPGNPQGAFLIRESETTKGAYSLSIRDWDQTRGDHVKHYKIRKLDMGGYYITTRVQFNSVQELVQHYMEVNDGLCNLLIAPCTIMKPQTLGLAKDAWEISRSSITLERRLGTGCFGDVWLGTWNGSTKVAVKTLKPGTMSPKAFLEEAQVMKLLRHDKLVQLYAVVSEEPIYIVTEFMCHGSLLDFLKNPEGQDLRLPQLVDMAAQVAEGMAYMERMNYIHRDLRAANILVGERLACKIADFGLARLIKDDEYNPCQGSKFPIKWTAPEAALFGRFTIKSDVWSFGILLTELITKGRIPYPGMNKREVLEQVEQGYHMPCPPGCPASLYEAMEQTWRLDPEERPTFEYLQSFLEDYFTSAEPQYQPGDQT
Procedure, shortened: as §1

MAPKAP-K2 = MAPKAP-K2 (Homo sapiens (Human), UniProt P49137)
Procedure, shortened: as §1

TAO1 = TAO1 (Homo sapiens (Human), UniProt Q7L7X3)
Procedure, shortened: as §1

Rsk2 = Rsk2 (Homo sapiens (Human), UniProt P51812)
Procedure, shortened: as §1

AKT2 = AKT2 (Homo sapiens (Human), UniProt P31751)
Procedure, shortened: as §1

TBK1 = TBK1 (Homo sapiens (Human), UniProt Q9UHD2)
Procedure, shortened: as §1

SGK3 = SGK3 (Homo sapiens (Human), UniProt Q96BR1)
Procedure, shortened: as §1

PTK6 = PTK6 (Homo sapiens (Human), UniProt Q13882)
Procedure, shortened: as §1

PKAC-alpha = PKAC-alpha (Homo sapiens (Human), UniProt P17612)
Procedure, shortened: as §1

EphB2 = EphB2 (Homo sapiens (Human), UniProt P29323)
Procedure, shortened: as §1

PDK1 = PDK1 (Homo sapiens (Human), UniProt O15530)
PDK1, sequence (O15530 whole entry): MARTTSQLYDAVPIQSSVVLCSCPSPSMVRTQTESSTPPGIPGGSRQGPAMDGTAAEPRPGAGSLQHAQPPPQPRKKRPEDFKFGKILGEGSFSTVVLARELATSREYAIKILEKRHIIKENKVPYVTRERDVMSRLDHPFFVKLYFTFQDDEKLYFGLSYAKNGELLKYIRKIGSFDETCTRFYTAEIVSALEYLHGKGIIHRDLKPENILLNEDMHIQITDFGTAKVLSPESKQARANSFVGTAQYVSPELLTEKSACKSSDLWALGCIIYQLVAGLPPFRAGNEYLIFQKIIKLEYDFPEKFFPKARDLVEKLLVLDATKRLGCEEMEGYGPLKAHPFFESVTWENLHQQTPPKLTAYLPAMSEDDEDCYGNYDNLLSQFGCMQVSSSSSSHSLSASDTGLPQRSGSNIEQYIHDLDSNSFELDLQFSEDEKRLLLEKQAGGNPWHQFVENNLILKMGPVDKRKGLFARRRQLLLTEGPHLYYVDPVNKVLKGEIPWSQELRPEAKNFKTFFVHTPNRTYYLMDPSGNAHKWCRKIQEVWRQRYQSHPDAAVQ
Procedure, shortened: as §1

NEK7 = NEK7 (Homo sapiens (Human), UniProt Q8TDX7)
Procedure, shortened: as §1

Rsk1 = Rsk1 (Homo sapiens (Human), UniProt Q15418)
Procedure, shortened: as §1

NEK6 = NEK6 (Homo sapiens (Human), UniProt Q9HC98)
Procedure, shortened: as §1

CAMK4 = CAMK4 (Homo sapiens (Human), UniProt Q16566)
Procedure, shortened: as §1

EphA2 = EphA2 (Homo sapiens (Human), UniProt P29317)
EphA2, sequence (P29317 24-976): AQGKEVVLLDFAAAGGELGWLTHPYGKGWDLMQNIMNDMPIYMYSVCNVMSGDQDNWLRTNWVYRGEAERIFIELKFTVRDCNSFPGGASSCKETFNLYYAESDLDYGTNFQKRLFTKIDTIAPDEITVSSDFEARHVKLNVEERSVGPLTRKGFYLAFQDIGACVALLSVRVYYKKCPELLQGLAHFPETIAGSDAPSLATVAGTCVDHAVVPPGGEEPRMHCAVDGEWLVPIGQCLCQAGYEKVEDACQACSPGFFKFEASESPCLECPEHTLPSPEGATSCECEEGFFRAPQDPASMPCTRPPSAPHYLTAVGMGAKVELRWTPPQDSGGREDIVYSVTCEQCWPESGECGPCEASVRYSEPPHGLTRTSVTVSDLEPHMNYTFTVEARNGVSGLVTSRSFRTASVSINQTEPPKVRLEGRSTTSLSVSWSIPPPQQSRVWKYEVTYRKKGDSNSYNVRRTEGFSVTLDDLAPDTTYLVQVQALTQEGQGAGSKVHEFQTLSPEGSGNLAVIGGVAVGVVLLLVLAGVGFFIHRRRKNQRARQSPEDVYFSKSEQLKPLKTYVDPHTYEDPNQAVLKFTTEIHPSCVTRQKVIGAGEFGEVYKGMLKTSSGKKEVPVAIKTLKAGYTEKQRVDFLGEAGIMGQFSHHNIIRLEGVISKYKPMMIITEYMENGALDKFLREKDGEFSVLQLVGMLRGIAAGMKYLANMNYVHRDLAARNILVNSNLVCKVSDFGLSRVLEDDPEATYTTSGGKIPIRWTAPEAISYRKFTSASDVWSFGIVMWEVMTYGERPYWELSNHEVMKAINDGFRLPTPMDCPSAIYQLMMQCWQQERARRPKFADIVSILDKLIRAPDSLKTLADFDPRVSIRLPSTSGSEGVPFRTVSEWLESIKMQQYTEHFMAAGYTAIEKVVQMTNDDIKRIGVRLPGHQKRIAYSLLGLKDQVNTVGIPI
Procedure, shortened: as §1

EphB4 = EphB4 (Homo sapiens (Human), UniProt P54760)
EphB4, sequence (P54760 16-987): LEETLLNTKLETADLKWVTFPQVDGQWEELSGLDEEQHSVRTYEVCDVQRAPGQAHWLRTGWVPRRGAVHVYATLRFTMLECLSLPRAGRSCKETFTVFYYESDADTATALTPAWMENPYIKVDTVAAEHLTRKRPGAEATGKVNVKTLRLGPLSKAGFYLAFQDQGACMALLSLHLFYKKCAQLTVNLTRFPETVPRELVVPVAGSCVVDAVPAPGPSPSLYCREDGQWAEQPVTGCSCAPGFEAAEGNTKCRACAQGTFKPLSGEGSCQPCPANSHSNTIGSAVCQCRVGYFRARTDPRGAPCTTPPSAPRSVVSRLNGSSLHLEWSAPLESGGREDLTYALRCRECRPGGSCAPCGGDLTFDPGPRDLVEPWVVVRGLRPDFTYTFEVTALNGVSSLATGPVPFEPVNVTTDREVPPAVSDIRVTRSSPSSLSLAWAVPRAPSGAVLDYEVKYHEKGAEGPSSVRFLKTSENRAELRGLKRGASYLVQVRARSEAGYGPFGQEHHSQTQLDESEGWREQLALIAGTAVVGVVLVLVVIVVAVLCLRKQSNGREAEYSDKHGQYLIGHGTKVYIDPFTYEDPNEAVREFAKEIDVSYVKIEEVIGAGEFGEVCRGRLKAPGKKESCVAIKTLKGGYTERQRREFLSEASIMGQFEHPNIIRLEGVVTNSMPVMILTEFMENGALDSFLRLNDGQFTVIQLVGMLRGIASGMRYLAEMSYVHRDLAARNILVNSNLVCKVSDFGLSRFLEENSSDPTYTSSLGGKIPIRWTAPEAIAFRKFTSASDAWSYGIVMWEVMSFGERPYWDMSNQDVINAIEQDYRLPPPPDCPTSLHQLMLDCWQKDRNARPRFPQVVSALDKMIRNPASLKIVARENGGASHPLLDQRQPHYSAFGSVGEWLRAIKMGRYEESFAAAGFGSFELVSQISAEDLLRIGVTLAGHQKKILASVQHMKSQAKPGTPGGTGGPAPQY
Procedure, shortened: as §1

TAO3 = TAO3 (Homo sapiens (Human), UniProt Q9H2K8)
Procedure, shortened: as §1

Ros = Ros (Homo sapiens (Human), UniProt P08922)
Procedure, shortened: as §1

MAPKAP-K3 = MAPKAP-K3 (Homo sapiens (Human), UniProt Q16644)
Procedure, shortened: as §1

BTK = BTK (Homo sapiens (Human), UniProt Q06187)
Procedure, shortened: as §1

PAK4 = PAK4 (Homo sapiens (Human), UniProt O96013)
Procedure, shortened: as §1

WNK2 = WNK2 (Homo sapiens (Human), UniProt Q9Y3S1)
Procedure, shortened: as §1

TSSK2 = TSSK2 (Homo sapiens (Human), UniProt Q96PF2)
Procedure, shortened: as §1

NEK3 = NEK3 (Homo sapiens (Human), UniProt P51956)
Procedure, shortened: as §1

JNK1alpha1 = JNK1alpha1 (Homo sapiens (Human), UniProt P45983)
JNK1alpha1, sequence (P45983 other isoform, or with tags, fused parts or gaps): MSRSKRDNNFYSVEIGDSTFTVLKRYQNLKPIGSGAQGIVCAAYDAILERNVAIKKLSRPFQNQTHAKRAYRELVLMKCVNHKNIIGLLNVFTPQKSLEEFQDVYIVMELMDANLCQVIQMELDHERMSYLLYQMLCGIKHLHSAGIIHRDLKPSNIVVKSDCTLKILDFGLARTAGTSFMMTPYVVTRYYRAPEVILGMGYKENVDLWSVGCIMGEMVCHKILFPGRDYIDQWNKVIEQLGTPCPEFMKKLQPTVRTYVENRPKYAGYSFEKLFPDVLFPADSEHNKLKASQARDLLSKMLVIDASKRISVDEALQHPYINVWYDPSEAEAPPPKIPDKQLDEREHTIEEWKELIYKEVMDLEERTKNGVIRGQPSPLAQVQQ
Procedure, shortened: as §1

DMPK = DMPK (Homo sapiens (Human), UniProt Q09013)
DMPK, sequence (Q09013 whole entry): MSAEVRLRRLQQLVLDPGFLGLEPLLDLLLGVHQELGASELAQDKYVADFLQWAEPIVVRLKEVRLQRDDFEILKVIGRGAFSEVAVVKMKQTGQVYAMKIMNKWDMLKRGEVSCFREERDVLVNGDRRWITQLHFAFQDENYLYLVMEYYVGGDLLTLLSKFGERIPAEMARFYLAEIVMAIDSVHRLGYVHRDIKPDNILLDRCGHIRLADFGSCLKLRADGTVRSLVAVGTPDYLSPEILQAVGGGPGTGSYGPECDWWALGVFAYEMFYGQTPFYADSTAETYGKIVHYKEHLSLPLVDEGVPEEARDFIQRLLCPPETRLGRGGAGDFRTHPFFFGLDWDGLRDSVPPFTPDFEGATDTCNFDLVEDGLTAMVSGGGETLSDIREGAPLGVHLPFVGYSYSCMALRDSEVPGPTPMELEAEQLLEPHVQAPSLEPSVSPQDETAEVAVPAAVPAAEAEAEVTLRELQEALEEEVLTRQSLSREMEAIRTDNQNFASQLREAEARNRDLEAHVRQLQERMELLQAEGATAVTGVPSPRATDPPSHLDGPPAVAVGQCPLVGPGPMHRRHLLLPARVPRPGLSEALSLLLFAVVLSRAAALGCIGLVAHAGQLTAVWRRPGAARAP
Procedure, shortened: as §1

Axl = Axl (Homo sapiens (Human), UniProt P30530)
Procedure, shortened: as §1

Hck = Hck (Homo sapiens (Human), UniProt P08631)
Procedure, shortened: as §1

CDK5/p35 = CDK5/p35 (Homo sapiens (Human), UniProt Q00535)
CDK5/p35, sequence (Q00535 whole entry): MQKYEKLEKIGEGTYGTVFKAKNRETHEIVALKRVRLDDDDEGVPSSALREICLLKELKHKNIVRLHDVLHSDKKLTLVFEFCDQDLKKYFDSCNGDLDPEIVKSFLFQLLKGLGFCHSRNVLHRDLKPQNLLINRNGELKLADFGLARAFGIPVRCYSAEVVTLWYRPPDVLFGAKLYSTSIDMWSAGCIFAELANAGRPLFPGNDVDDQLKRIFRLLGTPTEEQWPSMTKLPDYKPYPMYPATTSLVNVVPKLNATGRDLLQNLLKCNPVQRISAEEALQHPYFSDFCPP
CDK5/p35, sequence (Q15078 2-307 partner): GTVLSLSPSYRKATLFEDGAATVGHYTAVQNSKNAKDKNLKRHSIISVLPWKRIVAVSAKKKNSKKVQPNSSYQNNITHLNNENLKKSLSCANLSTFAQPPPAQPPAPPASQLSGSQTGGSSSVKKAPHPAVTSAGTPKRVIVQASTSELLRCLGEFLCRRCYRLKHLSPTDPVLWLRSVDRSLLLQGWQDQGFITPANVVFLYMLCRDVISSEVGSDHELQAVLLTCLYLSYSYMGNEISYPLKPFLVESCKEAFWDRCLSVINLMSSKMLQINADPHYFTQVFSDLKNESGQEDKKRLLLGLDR
Procedure, shortened: as §1

IKKalpha = IKKalpha (Homo sapiens (Human), UniProt O15111)
Procedure, shortened: as §1

MEK1 = MEK1 (Homo sapiens (Human), UniProt Q02750)
MEK1, sequence (Q02750 whole entry): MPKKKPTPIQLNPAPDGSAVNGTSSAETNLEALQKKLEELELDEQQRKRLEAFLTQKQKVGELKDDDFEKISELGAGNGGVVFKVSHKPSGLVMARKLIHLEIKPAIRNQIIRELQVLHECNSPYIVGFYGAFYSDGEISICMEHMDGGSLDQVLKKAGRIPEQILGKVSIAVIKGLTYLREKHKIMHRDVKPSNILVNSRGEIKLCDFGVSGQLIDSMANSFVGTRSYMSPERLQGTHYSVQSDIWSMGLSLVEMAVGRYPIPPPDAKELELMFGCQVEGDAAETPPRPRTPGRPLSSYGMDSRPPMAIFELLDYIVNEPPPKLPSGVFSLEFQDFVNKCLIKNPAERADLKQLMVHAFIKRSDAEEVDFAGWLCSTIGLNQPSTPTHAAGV
Procedure, shortened: as §1

Row | Avg POC (mTOR/FKBP12) [POC] | Avg POC (IR Activated) [POC] | Avg POC (IKKbeta) [POC] | Avg POC (CK1gamma3) [POC] | Avg POC (GRK6) [POC] | Avg POC (GRK7) [POC] | Avg POC (CK1_y) [POC] | Avg POC (MSSK1) [POC] | Avg POC (Fgr) [POC] | Avg POC (MAPKAP-K2) [POC] | Avg POC (TAO1) [POC] | Avg POC (Rsk2) [POC] | Avg POC (AKT2) [POC] | Avg POC (TBK1) [POC] | Avg POC (SGK3) [POC] | Avg POC (PTK6) [POC] | Avg POC (PKAC-alpha) [POC] | Avg POC (EphB2) [POC] | Avg POC (PDK1) [POC] | Avg POC (NEK7) [POC] | Compound | further results
1 | 108.5 | 106.5 | 87 | 87.5 | 96.5 | 104 | 103 | 118 | 108.5 | 111 | 102.5 | 106 | 113 | 116.5 | 106 | 101 | 94.5 | 109.5 | 94.5 | 117 | COCCN1C[C@@H](NC(=O)Nc2c(C)c(-c3ccnc(C)c3)nn2-c2ccccc2)[C@H](c2ccc(F)c(F)c2)C1 [Example 2, 1-((3S,4R)-4-(3,4-difluorophenyl)-1-(2-methoxyethyl)pyrrolidin-3-yl)-3-(4-methyl-3-(2-methylpyridin-4-yl)-1-phenyl-1H-pyrazol-5-yl)urea] | Avg POC (Rsk1): 111 POC; Avg POC (NEK6): 105.5 POC; Avg POC (CAMK4): 97.5 POC; Avg POC (EphA2): 110.5 POC; Avg POC (EphB4): 104 POC; Avg POC (TAO3): 97.5 POC; Avg POC (Ros): 105 POC; Avg POC (MAPKAP-K3): 101.5 POC; Avg POC (BTK): 109 POC; Avg POC (PAK4): 103.5 POC; Avg POC (WNK2): 98 POC; Avg POC (TSSK2): 107 POC; Avg POC (NEK3): 97 POC; Avg POC (JNK1alpha1): 98 POC; Avg POC (DMPK): 98.5 POC; Avg POC (Axl): 117 POC; Avg POC (Hck): 116.5 POC; Avg POC (CDK5/p35): 113 POC; Avg POC (IKKalpha): 121 POC; Avg POC (MEK1): 100.5 POC
2 | 113 | 100.5 | 99 | 95 | 97 | 97 | 97.5 | 109 | 80.5 | 101 | 96.5 | 99.5 | 119.5 | 103 | 107 | 108.5 | 109 | 120 | 101.5 | 106.5 | COCCN1C[C@@H](NC(=O)Nc2c(C)c(-c3cnc(C)nc3)nn2-c2ccccc2)[C@H](c2cc(F)cc(F)c2)C1 [Example 14, 1-((3S,4R)-4-(3,5-difluorophenyl)-1-(2-methoxyethyl)pyrrolidin-3-yl)-3-(4-methyl-3-(2-methylpyrimidin-5-yl)-1-phenyl-1H-pyrazol-5-yl)urea] | Avg POC (Rsk1): 111.5 POC; Avg POC (NEK6): 102 POC; Avg POC (CAMK4): 83.5 POC; Avg POC (EphA2): 96 POC; Avg POC (EphB4): 96 POC; Avg POC (TAO3): 100.5 POC; Avg POC (Ros): 91 POC; Avg POC (MAPKAP-K3): 105.5 POC; Avg POC (BTK): 97.5 POC; Avg POC (PAK4): 100.5 POC; Avg POC (WNK2): 99.5 POC; Avg POC (TSSK2): 107.5 POC; Avg POC (NEK3): 101 POC; Avg POC (JNK1alpha1): 105 POC; Avg POC (DMPK): 105 POC; Avg POC (Axl): 103 POC; Avg POC (Hck): 108.5 POC; Avg POC (CDK5/p35): 115.5 POC; Avg POC (IKKalpha): 118.5 POC; Avg POC (MEK1): 91 POC
